In the supplement of paper PMC6045584:
± gives the standard deviation of the averaged measurements.

Assays:
[1] = compound: CC[C@@]1(O)C(=O)OCc2c1cc1n(c2=O)Cc2cc3ccccc3nc2-1 [CAMPTOTHECIN]; assay: area under dose-response curve of surviving fraction (unscaled, Aref=0) (surviving fraction x log10(nM)); higher = more resistant; details: exposure time: 5 days; dose range 0.5-1000 nM
Procedure, shortened: (§1)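 Each tumour cell line was screened three times in 384-well plates, receiving eight inhibitor concentrations from 0.5 to 1000 nM for five days. CellTiter-Glo luminescence gave viability, normalised to DMSO-only wells. Using the drc R package, surviving fractions were fitted with 3-parameter logistic dose-response curves, and the unscaled activity area over log10 dose (Aref = 0) was taken as the area under the curve.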

[2] = compound: O=C(O)C1(C(=O)O)CCC1.[NH2-].[NH2-].[Pt+2] [CARBOPLATIN]; assay: as above; details: exposure time: 5 days; dose range 0.5-1000 nM
Procedure, shortened: as §1

[3] = compound: C[C@]1(O)C[C@@H](c2nc(-c3ccc4ccc(-c5ccccc5)nc4c3)c3c(N)nccn32)C1 [OSI-906]; assay: as above; details: exposure time: 5 days; dose range 0.5-1000 nM
Procedure, shortened: as §1

[4] = compound: CC(=O)c1c(C)c2cnc(Nc3ccc(N4CCNCC4)cn3)nc2n(C2CCCC2)c1=O; assay: as above; details: exposure time: 5 days; dose range 0.5-1000 nM
Procedure, shortened: as §1

[5] = compound: CC(=O)O[C@H]1C(=O)[C@@]2(C)[C@H]([C@H](OC(=O)c3ccccc3)[C@]3(O)C[C@H](OC(=O)[C@H](O)[C@@H](NC(=O)c4ccccc4)c4ccccc4)C(C)=C1C3(C)C)[C@]1(OC(C)=O)CO[C@@H]1C[C@@H]2O [PACLITAXEL]; assay: as above; details: exposure time: 5 days; dose range 0.5-1000 nM
Procedure, shortened: as §1

[6] = compound: COCC[n+]1c2c(n(Cc3cnccn3)c1C)C(=O)c1ccccc1C2=O [YM155]; assay: as above; details: exposure time: 5 days; dose range 0.5-1000 nM
Procedure, shortened: as §1

[7] = compound: CC(=O)NCC(=O)N1[C@@H]2CC[C@H]1c1ccc(Nc3ncc(C(F)(F)F)c(NC4CCC4)n3)cc12; assay: as above; details: exposure time: 5 days; dose range 0.5-1000 nM
Procedure, shortened: as §1

[8] = compound: T1, Cc1ccc(-c2cc(C(F)(F)F)nn2-c2ccc(S(N)(=O)=O)cc2)cc1 [CELECOXIB]; assay: surviving fraction relative to DMSO-only wells; higher = less growth inhibition; details: exposure time: 5 days
Procedure, shortened: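 Viability was determined by CellTiter-Glo luminescence, expressed as surviving fraction normalised to the median of DMSO-only wells. The cells were log-phase tumour cell lines seeded at 250–500 per well in 384-well plates and, after 24 hours, exposed continuously for five days to inhibitors at 0.5, 1, 5, 10, 50, 100, 500 and 1000 nM. Three screens per line were run, keeping only lines with replicate Pearson r >0.7 and median Z' >0.3.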

[9] = compound: COc1cc2ncnc(Nc3ccc(F)c(Cl)c3)c2cc1OCCCN1CCOCC1 [GEFITINIB]; assay: area under dose-response curve of surviving fraction (unscaled, Aref=0) (surviving fraction x log10(nM)); higher = more resistant; details: exposure time: 5 days; dose range 0.5-1000 nM
Procedure, shortened: as §1

[10] = compound: T1, CELECOXIB; assay: as above; details: exposure time: 5 days; dose range 0.5-1000 nM
Procedure, shortened: as §1

| Test System | area under dose-response curve [1] | area under dose-response curve [2] | area under dose-response curve [3] | area under dose-response curve [4] | area under dose-response curve [5] | area under dose-response curve [6] | area under dose-response curve [7] | surviving fraction ([8]; 0.5 nM) | surviving fraction ([8]; 1 nM) | surviving fraction ([8]; 5 nM) | surviving fraction ([8]; 10 nM) | surviving fraction ([8]; 50 nM) | surviving fraction ([8]; 100 nM) | surviving fraction ([8]; 500 nM) | surviving fraction ([8]; 1000 nM) | area under dose-response curve [9] | area under dose-response curve [10] |
| --- | --- | --- | --- | --- | --- | --- | --- | --- | --- | --- | --- | --- | --- | --- | --- | --- | --- |
| HT1080 SOFT TISSUE | 1.51 | 3.51 | 3.17 | 3.28 | 0.5 | 1.04 | 2.39 | 1.039 ± 0.0011 | 1.06 ± 0.011 | 1.038 ± 0.0067 | 1.05 ± 0.014 | 0.995 ± 0.02 | 1.011 ± 0.008 | 1.02 ± 0.012 | 1 ± 0.021 |  |  |
| SUM44 BREAST | 2.82 | 3.73 |  | 3.41 | 1.04 | 2.05 | 3.75 | 1.28 ± 0.4 | 1.25 ± 0.47 | 1.35 ± 0.54 | 1.26 ± 0.34 | 1.36 ± 0.47 | 1.46 ± 0.53 | 1.35 ± 0.5 | 1.37 ± 0.42 | 4.14 | 4.41 |
| NY BONE | 1.16 | 3.46 | 3.15 | 3.46 | 0.337 | 2.96 | 2.51 | 0.989 ± 0.03 | 1.04 ± 0.041 | 1.09 ± 0.038 | 1.08 ± 0.022 | 1.11 ± 0.047 | 1.1 ± 0.039 | 1.01 ± 0.021 | 1.01 ± 0.053 | 3.43 | 3.48 |
| SKBR3 BREAST | 1.42 | 3.44 | 2.71 | 3.09 | 0.673 | 1.36 |  | 1.15 ± 0.096 | 1.11 ± 0.11 | 1.019 ± 0.0061 | 1.02 ± 0.085 | 0.999 ± 0.091 | 1.07 ± 0.042 | 0.996 ± 0.17 | 1.08 ± 0.063 | 2.78 | 3.44 |
| MCF7 BREAST | 1.55 | 3.08 | 2.69 | 3.03 | 1.43 | 1.18 | 2.53 | 0.933 ± 0.053 | 0.922 ± 0.05 | 0.938 ± 0.013 | 0.927 ± 0.035 | 0.937 ± 0.042 | 0.942 ± 0.093 | 1 ± 0.011 | 1.01 ± 0.033 | 3.14 | 3.11 |
| HELA CERVIX | 1.99 | 3.53 | 3.27 | 3.5 | 0.718 | 1.07 | 2.21 | 1.09 ± 0.049 | 1.11 ± 0.047 | 1.05 ± 0.058 | 1.05 ± 0.039 | 1.09 ± 0.018 | 1.16 ± 0.044 | 1.14 ± 0.033 | 1.13 ± 0.049 | 3.66 | 3.64 |
| CAL72 BONE | 1.67 | 3.49 | 3.22 | 3.69 | 0.96 | 1.02 | 2.9 | 1.03 ± 0.1 | 1.04 ± 0.14 | 1.05 ± 0.11 | 1.04 ± 0.046 | 1.06 ± 0.12 | 1.08 ± 0.17 | 1.07 ± 0.13 | 1.09 ± 0.12 | 3.5 | 3.49 |
| NOS1 BONE | 1.96 | 3.95 | 2.83 | 3.53 | 1.13 | 1.08 |  | 1.18 ± 0.12 | 1.15 ± 0.34 | 1.16 ± 0.071 | 1.25 ± 0.051 | 1.18 ± 0.019 | 1.21 ± 0.054 | 1.12 ± 0.11 | 1.16 ± 0.075 |  | 3.88 |
